# Experimental data published in patent publication US20230416247A1, “DRUG-LIKE MOLECULES AND METHODS FOR THE THERAPEUTIC TARGETING OF MICRORNA-21” (University of Washington, priority 2020, published 2023).
# Test system: mature miR-21 in HeLa cells
# Assay: qRT-PCR of mature miR-21 in HeLa cells
# Format: cell-based
# Experimental: FIGS. 12A and 12B compare levels of mature miR-21 in HeLa cells, as measured by standard qRT-PCR after 5 days of incubation in the presence of palbociclib and compounds −0045 (sm1), −0050 (sm3) and −0052 (sm5) (FIG. 12A); and levels of mature miR-21 in HeLa cells were measured by qRT-PCR after 4 days of incubation in the presence of palbociclib (a control) and compounds −0045 (sm1), −0050 (sm3) and −0052 (sm5) (FIG. 12B), normalized to miR-21 levels in the absence of any compound. […] The two panels represent independent duplicates of the same experiment.
# HeLa cells have relatively high levels of miR-21, and this cell line was used to evaluate whether addition of the molecules would decrease levels of mature miR-21, as expected for inhibition of miR-21 processing. […] In contrast, compounds −0045, −50 and −52, induce an approximately 20% percent decline in levels of mature miR-21 (FIGS. 12A and 12B; the comparison of FIG. 12A and FIG. 12B provides an indication in the uncertainty of the data). miR-21 is very long lived, with a lifetime of approximately 5 days. […] Similar results were obtained at higher numbers of cells/plate (200 k vs at the start of the experiment), but the experiment could not be extended beyond 2 days because of the very high cell density reached. The observed trends were nonetheless in agreement with the experiments conducted at lower cell density.
SMILES,"increase in levels of miR-21 (days 4 and 5 of incubation, 20 k vs 200 k cells/plate, normalized to no compound)","decline in levels of mature miR-21 (days 4 and 5 of incubation, normalized to no compound)",reduction of all newly synthesized miR-21 (worked out from the 20% decrease and miR-21 lifetime of approximately 5 days)
"CC(=O)c1c(C)c2cnc(Nc3ccc(N4CCNCC4)cn3)nc2n(C2CCCC2)c1=O [Palbociclib, reference compound]",10-20%,,
O=c1[nH]c(Nc2ccc(N3CCNCC3)cn2)nc2ccncc12 [−0050],,approximately 20%,about 60%
